In article PMC10794137, “A new antibiotic traps lipopolysaccharide in its intermembrane transporter” (Nature, 2024):
“And” between values parts separate entries of the source, which are not always exact repeats. Equal entries are not always repeated. Where two headings read alike, the source gives them in different places.

Legend:
[1] = system: Acinetobacter baylyi ADP1 wild type; assay: microbe, parasite or virus in culture; assay type: cell-based; conditions: A. baylyi wild type
Description: (§1) Culture, genetic manipulation and MIC measurements of A. baylyi ADP1 were conducted according to previously reported procedures[46],[51]. Point mutants were constructed in a two-step procedure following ref. [52] with the introduction and excision of the integration cassette at codon 66 of pepA, wherein the excising fragment of otherwise wild-type chromosomal DNA sequence from codon 406 of pepA to codon 193 of lptG bore the desired mutation and the resulting clones were screened by amplicon sequencing from codon 81 of HolC to codon 501 of GpmI, whereas lpxM deletion was achieved following the same procedure except that the integration cassette insertion and excision removed codons 79–279 of lpxM to avoid interference with neighbouring and overlapping genes that a larger deletion may risk and replaced codon 78 with an ochre stop codon to prevent a readthrough resulting in an aberrant fusion, with the excising fragment sequence spanning from codon 211 of sppA to codon 497 of ComA and verified by amplicon sequencing from codon 94 of MhpC to codon 327 of ComA as well as by absence of a PCR product corresponding to a region spanning codons 79 to 279 of lpxM to check for duplications. A deletion of the lon protease was made in the same manner to produce the stain used for expression and purification of LptB2FG to mimic the BL21 strain of E. coli used in the rest of purifications, for which the region encompassing 72 base pairs (bp) upstream of the lon start codon and 1 bp downstream of the lon stop codon was excised after being replaced with the same integration cassette, yielding a markerless deletion, with the excising fragment sequence spanning from codon 491 of ArnT to codon 40 of 45_DOPA_Dioxygenase and verified by amplicon sequencing spanning from codon 322 of ArnT to codon 221 of 45_DOPA_Dioxygenase as well as by absence of a PCR product corresponding to a region spanning from codons 328 to 768 of lon to check for duplications. Following amplicon confirmation, three validated isolates of each constructed mutant were tested for susceptibility to a panel of antibiotics with […] known mechanisms of action as a further validation step to ensure congruence of phenotypes across replicates, which was confirmed in all cases and one of the validated replicates was later used for MIC measurements reported here.
(§2) MIC determinations were performed by broth microdilution in line with CLSI guidelines (CLSI M07-A11 2018). Bacterial inocula were prepared by diluting overnight liquid cultures in LB. Antibacterial panels containing antibacterial solutions were inoculated with an appropriate volume of inoculum to give a final inoculum of about 5 × 10^5 c.f.u. ml^−1 and desired test concentrations of antibacterial agents in standard 96-well plates with 0.1 ml of culture per well. The test plates were incubated for 20–24 h and optical density (OD600) was recorded using a plate reader. MIC values corresponded to the lowest compound concentration inhibiting bacterial growth beyond which OD ceased to decrease.

[2] = system: Acinetobacter baylyi ΔlpxM; assay: MIC by broth microdilution, A. baylyi ΔlpxM; assay type: cell-based
Description: as §1, §2

[3] = molecular target: His-tagged LptB2FG (ablLptB2FG) (Acinetobacter baylyi, UniProt Q6FFD6+Q6FFD7); assay: Radioligand binding SPA, LptB2FG
Description: The binding of radioligand [^3H]-RO7223280 to ablLptB2FG and ablLptB2FGC was measured by bead-based SPA. All steps were performed in SEC buffer (20 mM Tris pH 7.5, 300 mM NaCl, 5% glycerol, 0.5 mM TCEP, 0.05% DDM ± 10 µM E.coli J5 LPS(Rc) [sequence] (Enzo Life Sciences)) and at 4 °C unless otherwise indicated. Purified protein was first incubated with Copper PVT HIS-tag beads (Perkin Elmer) for 1.5 h under gentle rotation. Twelve radioligand concentrations were added to the PVT–protein mix and incubated for another 30 min. […] The SPA plates were sealed (TopSeal, Perkin Elmer) and stored at 4 °C overnight. Before the measurement, plates were mixed on a shaker for 20 min, 750 rpm at room temperature and the seal was thoroughly wiped with antistatic spray to reduce electrostatic events. Scintillation data were recorded with a Topcount NXT C384, in the form of three independent replicates each consisting of three technical triplicates. Specific binding was calculated by subtracting non-specific binding raw counts from total binding raw counts. The dissociation constant Kd and standard deviation of the three independent replicates are reported and were calculated by the GraphPad Prism ‘One site – specific binding’ tool.

[4] = system: His-tagged LptB2FGC (ablLptB2FGC); conditions: SPA
Description: The binding of radioligand [^3H]-RO7223280 to ablLptB2FG and ablLptB2FGC was measured by bead-based SPA. All steps were performed in SEC buffer (20 mM Tris pH 7.5, 300 mM NaCl, 5% glycerol, 0.5 mM TCEP, 0.05% DDM ± 10 µM E.coli J5 LPS(Rc) […] (Enzo Life Sciences)) and at 4 °C unless otherwise indicated. Purified protein was first incubated with Copper PVT HIS-tag beads (Perkin Elmer) for 1.5 h under gentle rotation. Twelve radioligand concentrations were added to the PVT–protein mix and incubated for another 30 min. […] The SPA plates were sealed (TopSeal, Perkin Elmer) and stored at 4 °C overnight. Before the measurement, plates were mixed on a shaker for 20 min, 750 rpm at room temperature and the seal was thoroughly wiped with antistatic spray to reduce electrostatic events. Scintillation data were recorded with a Topcount NXT C384, in the form of three independent replicates each consisting of three technical triplicates. Specific binding was calculated by subtracting non-specific binding raw counts from total binding raw counts. The dissociation constant Kd and standard deviation of the three independent replicates are reported and were calculated by the GraphPad Prism ‘One site – specific binding’ tool.

[5] = Acinetobacter baylyi, ADP1WILDTYPE, read-out: MIC

His-tagged LptB2FG (ablLptB2FG), sequence (Q6FFD7 1-366): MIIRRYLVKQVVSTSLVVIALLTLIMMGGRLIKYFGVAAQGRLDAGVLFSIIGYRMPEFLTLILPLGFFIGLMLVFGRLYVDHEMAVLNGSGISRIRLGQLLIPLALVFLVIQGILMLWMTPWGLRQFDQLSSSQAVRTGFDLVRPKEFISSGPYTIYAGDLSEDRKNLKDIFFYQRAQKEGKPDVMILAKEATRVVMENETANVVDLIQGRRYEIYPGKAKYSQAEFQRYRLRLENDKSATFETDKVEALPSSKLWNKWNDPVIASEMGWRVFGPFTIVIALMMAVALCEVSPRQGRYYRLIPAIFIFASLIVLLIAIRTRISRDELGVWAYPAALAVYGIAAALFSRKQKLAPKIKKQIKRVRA
His-tagged LptB2FG (ablLptB2FG), sequence (Q6FFD6 1-356): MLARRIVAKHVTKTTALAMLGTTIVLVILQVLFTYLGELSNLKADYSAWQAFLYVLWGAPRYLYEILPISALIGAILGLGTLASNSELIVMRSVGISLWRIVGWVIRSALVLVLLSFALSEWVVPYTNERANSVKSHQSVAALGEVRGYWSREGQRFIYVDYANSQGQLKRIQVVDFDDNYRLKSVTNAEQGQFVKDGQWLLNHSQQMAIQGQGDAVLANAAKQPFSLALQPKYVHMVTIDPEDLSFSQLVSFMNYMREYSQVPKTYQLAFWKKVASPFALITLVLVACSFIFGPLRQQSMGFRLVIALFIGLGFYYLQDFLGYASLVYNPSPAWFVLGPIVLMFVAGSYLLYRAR
His-tagged LptB2FG (ablLptB2FG), sequence (Q6FC66 1-249 partner): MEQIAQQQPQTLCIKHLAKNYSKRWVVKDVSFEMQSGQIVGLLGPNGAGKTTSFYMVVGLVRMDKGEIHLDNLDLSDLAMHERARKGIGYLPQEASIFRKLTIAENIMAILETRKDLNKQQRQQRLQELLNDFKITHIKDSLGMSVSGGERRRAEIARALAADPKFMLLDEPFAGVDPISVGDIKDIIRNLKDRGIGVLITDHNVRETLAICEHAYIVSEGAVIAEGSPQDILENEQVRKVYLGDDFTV

Compound | MIC [1, 5] | MIC ([2]; Acinetobacter baylyi) | also measured
CO[C@H]1[C@H](OC(=O)c2ccc(C)[nH]2)[C@H](O)[C@@H](Oc2ccc3c(O)c(NC(=O)c4c[nH]c(C(=O)Nc5c(O)c6ccc(O[C@H]7OC(C)(C)[C@@H](OC)[C@H](OC(=O)c8ccc(C)[nH]8)[C@@H]7O)c(C)c6oc5=O)c4C)c(=O)oc3c2C)OC1(C)C [Coumermycin A1] | 5 µM and 6 µg/mL | 0.16 µM and 0.18 µg/mL | –
CO[C@@H]1[C@@H](OC(N)=O)[C@@H](O)[C@H](Oc2ccc3c(O)c(NC(=O)c4ccc(O)c(CC=C(C)C)c4)c(=O)oc3c2C)OC1(C)C [Novobiocin] | 4 µM and 2 µg/mL | 0.6 µM and 0.4 µg/mL | –
CO[C@H]1/C=C/O[C@@]2(C)Oc3c(C)c(O)c4c(O)c(c(/C=N/N5CCN(C)CC5)c(O)c4c3C2=O)NC(=O)/C(C)=C\C=C\[C@H](C)[C@H](O)[C@@H](C)[C@@H](O)[C@@H](C)[C@H](OC(C)=O)[C@@H]1C [Rifampicin] | 1.6 µM and 1.3 µg/mL | 0.6 µM and 0.5 µg/mL | –
Oc1cc(Cl)ccc1Oc1ccc(Cl)cc1Cl [Triclosan] | 0.126 µM and 0.036 µg/mL | 0.03 µM and 0.009 µg/mL | –
CN[C@H](CC(C)C)C(=O)N[C@H]1C(=O)N[C@@H](CC(N)=O)C(=O)N[C@H]2C(=O)N[C@H]3C(=O)N[C@H](C(=O)N[C@H](C(=O)O)c4cc(O)cc(O)c4-c4cc3ccc4O)[C@H](O)c3ccc(c(Cl)c3)Oc3cc2cc(c3O[C@@H]2O[C@H](CO)[C@@H](O)[C@H](O)[C@H]2O[C@H]2C[C@](C)(N)[C@H](O)[C@H](C)O2)Oc2ccc(cc2Cl)[C@H]1O [Vancomycin] | 500 µM and 700 µg/mL | 17 µM and 25 µg/mL | –
CN1C(=O)[C@H](CCCCN)NC(=O)[C@H](CCCN)NCc2cccnc2Sc2cccc(-c3ccc(C(=O)O)cc3)c2CNC(=O)[C@@H]1Cc1c[nH]c2ccccc12 [[^3H]-RO7223280] | – | – | Binding of radiolabelled 2 to LptB2FG ([3]; binding dependent on presence of LPS): bound to LptB2FG; Kd ([3]; used as constraint for Ki fit): 86 nM; Binding of radiolabelled 2 to LptB2FGC [4]: not LptB2FGC
Bacitracin | – | – | MIC [1]: 700 µg/mL; MIC ([1]; read-out: MIC): 500 µM; MIC ([2]; A. baylyi ΔlpxM): 20 µM and 30 µg/mL
